Data as given in patent US10487088B2, “Tricyclic compound serving as immunomodulator” (Chia Tai Tianqing Pharmaceutical Group Co., Ltd., priority 2016, dated 2019).

Assays:
[1] = biological target: T1, recombinant human IDO1 enzyme (Homo sapiens, UniProt P14902); assay: In vitro hIDO1 enzyme activity test (NFK Green fluorescence); format: biochemical; details: recombinant human IDO1, L-tryptophan substrate, pH 6.5
T1 construct: purchased NTRC NTRC-hlDO-10K
Method: The change of NFK production was detected by using the NFK Green™ fluorescent molecule, which is the metabolite of the IDO1 enzyme, and the IC50 value of the compound was used as an index, to evaluate the inhibitory effect of the compound on the recombinant human IDO1 enzyme.
IDO1 Enzyme Activity Assay Kit, NTRC # NTRC-hlDO-10K;
The compound was diluted to 1 mM in DMSO, and then diluted 3-fold in duplicate wells, with 10 gradients. 48 μL of 50 mM phosphate buffer (pH 6.5) was transferred to the compound plate via Bravo automated liquid handling platform. 2 μL of the diluted solution of the compound in DMSO was then added and mixed, followed by transferring 10 μL therein to an enzyme reaction plate.
The IDO1 enzyme was diluted to 20 nM in the reaction buffer (50 mM phosphate buffer pH 6.5, 0.1% Tween-20, 2% glycerol, 20 mM ascorbic acid, 20 μg/mL catalase and 20 μM methylene blue), and 20 μL of the solution was transferred to an enzyme reaction plate and incubated at 23° C. for 30 min. The reaction was started by adding 10 μL of 400 μM L-type tryptophan substrate and incubated at 23° C. for 90 min. 10 μL of NFK Green™ fluorescent dye was added, and the plate was sealed with the sealing film, incubated at 37° C. for 4 h, and then read on Envision Multimode Plate Reader (Ex 400 nm/Em 510 nm).
The control wells with the IDO1 enzyme but no compound was set as 0% inhibition, and the control wells without the IDO1 enzyme was set as 100% inhibition, and the IC50 value of the compound was calculated by analyzing the data with XLFit 5.

[2] = biological target: T2, IDO1 enzyme in Hela cells (Homo sapiens, UniProt P14902); assay: hIDO1 cytological activity assay (kynurenine in Hela cells by LC-MS); format: cell-based; details: Hela cells induced with 100 ng/mL recombinant human γ-interferon, 20 h, read-out: IC50 hIDO1 Cytoactive
T2 construct: recombinant human γ-interferon was added at a final concentration of 100 ng/mL to induce IDO1 expression; endogenous in cells; host or cells: Hela cells, induced with recombinant human γ-interferon
T2 sequence (P14902 whole entry): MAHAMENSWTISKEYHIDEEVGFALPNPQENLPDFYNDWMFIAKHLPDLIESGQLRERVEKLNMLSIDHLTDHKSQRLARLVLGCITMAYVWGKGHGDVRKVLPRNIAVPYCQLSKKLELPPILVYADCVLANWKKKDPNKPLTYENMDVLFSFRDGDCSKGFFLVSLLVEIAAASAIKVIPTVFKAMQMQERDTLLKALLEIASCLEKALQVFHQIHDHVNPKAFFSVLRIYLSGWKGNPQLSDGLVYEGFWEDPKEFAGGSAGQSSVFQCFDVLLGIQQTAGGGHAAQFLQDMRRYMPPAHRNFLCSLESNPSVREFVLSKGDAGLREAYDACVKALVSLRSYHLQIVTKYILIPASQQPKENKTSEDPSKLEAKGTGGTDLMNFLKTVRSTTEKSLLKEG
Method: The change of kynurenine in Hela cells was detected by the LC-MS method, and the IC50 value of the compound was used as an index, to evaluate the inhibitory effect of the compound on IDO1 enzyme.
A medium, trypsin and DPBS were pre-heated in a 37° C. water bath. The medium for cell culture was sucked out and washed with 10 mL of DPBS; then the pre-heated trypsin was added into the culture flask, and the flask was rotated to allow the trypsin to uniformly cover it, and then placed in a 37° C., 5% CO2 incubator and digested for 1-2 min; in each T150, cells were dispersed with 10-15 mL of medium, centrifuged at 800 rpm for 5 min, and then resuspended in 10 mL of medium; 1 mL of cell suspension was pipetted and the cells were counted with Vi-cell; Hela cells were diluted with medium to 5×10^5/mL, 80 μL of the solution was added to a 96-cell plate, and cultured at 37° C. for 5-6 h in a 5% CO2 incubator.
The compound was diluted to 1 mM in DMSO, and then diluted 3-fold in duplicate wells, with 9 gradients. 5 μL of the diluted solution of the compound in DMSO was added to the compound plate containing 95 μL of the medium, and mixed, followed by transferring 10 μL of the mixture to a cell plate.
10 μL of recombinant human γ-interferon was added at a final concentration of 100 ng/mL to induce IDO1 expression. The cells were incubated at 37° C. for 20 h in a 5% CO2 incubator. 4 μL of 5% (w/v) trichloroacetic acid was added thereto, mixed and incubated at 50° C. for 30 min. After centrifugation at 2400 rpm for 10 min, 40 μL of the supernatant was taken and placed in a 96-well V-bottom plate, and then a precipitant was added in the plate. After mixing, the mixture was centrifuged at 4000 rpm for 10 min. 100 μL of the supernatant was transferred to a new 96-well V-bottom plate. The content of kynurenine was determined by LC-MS.
The control wells having γ-interferon but no compound was set as 0% inhibition, and the control wells without Hela cell was set as 100% inhibition, and the IC50 value of the compound was calculated by analyzing the data with XLFit 5.

T1 sequence (P14902 whole entry): as above

SMILES	IC50 [1] [nM]	IC50 [2] [nM]
OC1CCCCC1C1c2sccc2-c2cncn21 (single isomer, unassigned) [Example 85]	27.2	159
O[C@@H](C[C@H]1c2sccc2-c2cncn21)C1CCOCC1 (single isomer, unassigned) [Example 29]	51.6	117
OCC1(C2c3sccc3-c3cncn32)CCCCC1 (single isomer, unassigned) [Example 42, [1-(8H-thieno[3,4]pyrrolo[1,5-a]imidazol-8-yl)cyclohexyl]methanol]	253	779
FC1(F)[C@@H]2C[C@@H](C3c4sccc4-c4cncn43)C[C@@H]21 (single isomer, unassigned) [Example 63, 8-[6,6-difluoro-3-bicyclo[3.1.0]cyclohexyl]-8H-thieno[3,4]pyrrolo[1,5-a]imidazole (trans)]	8800	> 5000
OC1CCC(C2c3sccc3-c3cncn32)CC1 (single isomer, unassigned) [Example 117, 4-(8H-thieno[3,4]pyrrolo[1,5-a]imidazol-8-yl)-cyclohexanol]	215	891
c1cc2c(s1)C(C1CCCCCC1)n1cncc1-2 (single isomer, unassigned) [Example 72, 8-cycloheptyl-8H-thieno[3,4]pyrrolo[1,5-a]imidazole]	99.9	223
c1cc2c(s1)C(C1CCCCC1)n1cncc1-2 (single isomer, unassigned) [Example 14, 8-cyclohexyl-8H-thieno[3,4]pyrrolo[1,5-a]imidazole]	65.9	220
c1cc2c(s1)C(CCC1CCCCC1)n1cncc1-2 (single isomer, unassigned) [Example 10, 8-(2-cyclohexyl)-8H-thieno[3,4]pyrrolo[1,5-a]imidazole]	> 10000	> 5000
FC1(F)CCC([C@H]2c3sccc3-c3cncn32)CC1 (single isomer, unassigned) [Example 41]	48	74.9
c1cc2c(s1)C(CCC1CCCCC1)n1cncc1-2 (single isomer, unassigned) [Example 9, 8-(2-cyclohexyl)-8H-thieno[3,4]pyrrolo[1,5-a]imidazole]	55	17.5
CC(C)(C(O)C1CCCCC1)C1c2sccc2-c2cncn21 (single isomer, unassigned) [Example 119, 1-cyclohexyl-2-methyl-2-(8H-thieno[3,4]pyrrolo[1,5-a]imidazol-8-yl)-propan-1-ol]	390	1980
FC1(F)CCC(CCC2c3sccc3-c3cncn32)CC1 (single isomer, unassigned) [Example 22, 8-(2-(4,4-difluorocyclohexyl)ethyl)-8H-thieno[3′,2′:3,4]pyrrolo[1,2-c]imidazole]	23.1	212
OC(CC1c2ccsc2-c2cncn21)C1CCCCC1 (stereo not shown) [Example 4, 1-cyclohexyl-2-(4H-thieno[3,4]pyrrolo[1,5-a]imidazol-4-yl)ethanol]	83.6	613
O=C(O)C1CCCC(C2c3sccc3-c3cncn32)C1 (single isomer, unassigned) [Example 99, 3-(8H-thieno[3,4]pyrrolo[1,5-a]imidazol-8-yl) cyclohexylcarboxylic acid]	> 10000	–
c1cc2c(s1)C(C1CCCC1)n1cncc1-2 (single isomer, unassigned) [Example 74, 8-cyclopentyl-8H-thieno[3,4]pyrrolo[1,5-a]imidazole]	257	–
O[C@@H](C[C@@H]1c2sccc2-c2cncn21)C1CCOCC1 (single isomer, unassigned) [Example 28]	> 10000	> 5000
CC(C)C1c2sccc2-c2cncn21 (stereo not shown) [Example 25, 8-isopropyl-8H-thieno[3,4]pyrrolo[1,5-a]imidazole]	8120	–

SMILES	IC50 [1] [nM]	IC50 [2] [nM]
OC(CC1c2nn(C(F)(F)F)cc2-c2cncn21)C1CCCCC1 (single isomer, unassigned) [Example 3, 1-cyclohexyl-2-(2-(trifluoromethyl)-2,8-dihydroimidazo[1′,5′:1,5]pyrrolo[3,4-c]pyrazol-8-yl)ethanol]	> 10000	–
FC1(CCC2c3sccc3-c3cncn32)CCCCC1 (stereo not shown) [Example 39, 8-(2-(1-fluorocyclohexyl)ethyl)-8H-thieno[3′,2′:3,4]pyrrolo[1,2-c]imidazole]	46	90.5
OC1CCCCC1C1c2sccc2-c2cncn21 (single isomer, unassigned) [Example 53, 2-(8H-thieno[3,4]pyrrolo[1,5-a]imidazol-8-yl)cyclohexanol]	161	377
c1ccc(C2CCC(C3c4sccc4-c4cncn43)CC2)cc1 (single isomer, unassigned) [Example 88, 8-(4-phenylcyclohexyl)-8H-thieno[3′,2′:3,4]pyrrolo[1,2-c]imidazole]	478	–
c1cc2c(s1)C(CCN1CCOCC1)n1cncc1-2 (stereo not shown) [Example 30]	> 10000	–
c1cc2c(s1)C(CC1CCCCC1)n1cncc1-2 (single isomer, unassigned) [Example 15, 8-(cyclohexylmethyl)-8H-thieno[3,4]pyrrolo[1,5-a]imidazole]	5220	–
O=C(O)C1CCCC(C2c3sccc3-c3cncn32)C1 (single isomer, unassigned) [Example 102, 3-(8H-thieno[3,4]pyrrolo[1,5-a]imidazol-8-yl) cyclohexylcarboxylic acid]	> 10000	–
c1ccc2c(C3CCC(C4c5sccc5-c5nccn54)CC3)ccnc2c1 (stereo not shown) [Example 96, 5-(4-(quinolin-4-yl)cyclohexyl)-5H-thieno[3′,2′:3,4]pyrrolo[1,2-a]imidazole]	> 10000	–
c1cc2c(s1)C(C13CCC(CC1)CC3)n1cncc1-2 (single isomer, unassigned) [Example 48, 8-(4-bicyclo[2.2.2]octyl)-8H-thieno[3,4]pyrrolo[1,5-a]imidazole]	518	–
c1cc2c(s1)C(C1CCC1)n1cncc1-2 (stereo not shown) [Example 32, 8-cyclobutyl-8-hydro-thieno[3,4]pyrrolo[1,5-a]imidazole]	807	–
FC1(F)CCC([C@@H]2c3sccc3-c3cncn32)CC1 (single isomer, unassigned) [Example 40]	> 10000	–
c1cc2c(s1)C(COC1CCCCC1)n1cncc1-2 (single isomer, unassigned) [Example 18, 8-((cyclohexyloxy)methyl)-8H-thieno[3′,2′:3,4]pyrrolo[1,2-c]imidazole]	> 10000	–
O=C1CC[C@H]2C[C@@H]([C@@H](O)CC3c4sccc4-c4cncn43)CCN12 (single isomer, unassigned) [Example 27]	869	–
c1cc2c(s1)C(C1CCOCC1)n1cncc1-2 (single isomer, unassigned) [Example 37, 8-tetrahydropyran-4-8H-thieno[3,4]pyrrolo[1,5-a]imidazole]	2400	–
OC1CCCCC1C1c2sccc2-c2cncn21 (single isomer, unassigned) [Example 51, 2-(8H-thieno[3,4]pyrrolo[1,5-a]imidazol-8-yl)cyclohexanol]	> 10000	–
OC1CCCC(C2c3sccc3-c3cncn32)C1 (single isomer, unassigned) [Example 69, 3-(8H-thieno[3′,2′:3,4]pyrrolo[1,2-c]imidazol-8-yl)cyclohexanol]	2320	–
